Our source for the dissociation constant and thermal shift values is PMC6506387 (Structure (London, England : 1993), 2019).

In assay [1] the target is T1, wt PKAcα (Homo sapiens, UniProt P17612). To be noted: 20 mM MOPS pH 7.0, 150 mM NaCl; ATP 0-0.75 mM.
The target in assay [2] is T1, wt PKAcα. To be noted: 1 mM ATP, 10 mM MgCl2, 20 mM MOPS pH 7.0, 150 mM NaCl, 0.5 °C/min.

As for `Nc1ncnc2c1ncn2[C@@H]1O[C@H](COP(=O)(O)OP(=O)(O)OP(=O)(O)O)[C@@H](O)[C@H]1O` [ATP], the dissociation constant result at wt PKAcα [1] was “ATP dissociation constants were determined using the ThermoFluor assay”. Moreover, the thermal shift entry at wt PKAcα [2] was “stabilities of apo PKAcα or J-PKAcα subunits and its ATP and/or peptide binding forms”.
